The experiment concerns E. coli. Description: Bacterial susceptibility testing, MIC by broth microdilution (CLSI). Conditions: for MIC: Escherichia coli, read-out: E. coli MIC, broth microdilution, 35° C., 18-24 h; for E. coli MIC: broth microdilution, 35° C., 18-24 h.

These results are taken from patent US11407740B2 (priority 2018, dated 2022).

Structures are written as SMILES. Values after ≈ are worked out from the molar mass of the structure shown.

Method: Minimal inhibitory concentrations (MIC) were determined by the broth microdilution method in accordance with the Clinical and Laboratory Standards Institute (CLSI) guidelines. In brief, organism suspensions were adjusted to a 0.5 McFarland standard to yield a final inoculum between 3×10^3 and 7×10^5 colony-forming units (CFU)/mL. Drug dilutions and inocula were made in sterile, cation adjusted Mueller-Hinton Broth (Beckton Dickinson). An inoculum volume of 100 μL was added to wells containing 100 μL of broth with 2-fold serial dilutions of drug.

For `O=c1[nH]cnc(CC(CO)c2ccc(C#Cc3ccc(CN[C@H]4CCOC4)cc3)cc2)c1O` (mixture of isomers) [Compound 8], the MIC is under 1 µg/mL.

Take `O=c1[nH]cnc(CC(CO)c2ccc(C#Cc3ccc(CN[C@@H]4CCOC4)cc3)cc2)c1O` (mixture of isomers) [Compound 11]: the MIC is under 1 µg/mL. On the same count and under the same terms, the same measure for `O=C(NCCF)C(Cc1nc[nH]c(=O)c1O)c1ccc(C#Cc2ccc(CN[C@H]3CCOC3)cc2)cc1` (mixture of isomers) [Compound 30]: 1 to 8 µg/mL; for `CC(CO)(Cc1nc[nH]c(=O)c1O)c1ccc(C#Cc2ccc(CN[C@H]3CCOC3)cc2)cc1` (mixture of isomers) [Compound 32]: under 1 µg/mL; for `O=c1[nH]cnc(CC(CO)c2ccc(C#Cc3ccc(CCN[C@H]4CCOC4)cc3)cc2)c1O` (mixture of isomers) [Compound 43]: under 1 µg/mL.

For `O=C(CO)N1CC[C@@H](NCc2ccc(C#Cc3ccc(C(CO)Cc4nc[nH]c(=O)c4O)cc3)cc2)C1` (mixture of isomers) [Compound 44], the MIC is under 1 µg/mL. As for `O=c1[nH]cnc(CC(CO)c2ccc(C#Cc3ccc(CN[C@@H]4CCNC4)cc3)cc2)c1O` (mixture of isomers) [Compound 62], the MIC was 1 to 8 µg/mL. On the same count and under the same terms, the same measure for `COC1CN(Cc2ccc(C#Cc3ccc(C(CN[C@@H](C)CF)Cc4nc[nH]c(=O)c4O)cc3)cc2)C1` (mixture of isomers) [Compound 66]: under 1 µg/mL.

For `C[C@@H](CF)NCC(Cc1nc[nH]c(=O)c1O)c1ccc(C#Cc2ccc(CN3CC4COCC4C3)cc2)cc1` (mixture of isomers) [Compound 84], the MIC is under 1 µg/mL. Still for that read-out and setting: the same measure for `CO[C@@H]1CCN(Cc2ccc(C#Cc3ccc(C(CN[C@@H](C)CF)Cc4nc[nH]c(=O)c4O)cc3)cc2)C1` (mixture of isomers) [Compound 86]: under 1 µg/mL; for `CO[C@H]1CCN(Cc2ccc(C#Cc3ccc(C(CN[C@@H](C)CF)Cc4nc[nH]c(=O)c4O)cc3)cc2)C1` (mixture of isomers) [Compound 89]: under 1 µg/mL; for `C[C@@H](CF)NCC(Cc1nc[nH]c(=O)c1O)c1ccc(C#Cc2ccc(CN3CC[C@@H](C#N)C3)cc2)cc1` (mixture of isomers) [Compound 91]: under 1 µg/mL. The same measure, in the same setting: the same measure for `C[C@@H](CF)NCC(Cc1nc[nH]c(=O)c1O)c1ccc(C#Cc2ccc(CN3CC[C@H](C#N)C3)cc2)cc1` (mixture of isomers) [Compound 92]: under 1 µg/mL; for `C[C@@H](CF)NCC(Cc1nc[nH]c(=O)c1O)c1ccc(C#Cc2ccc(CNC3COC3)cc2)cc1` (mixture of isomers) [Compound 94]: under 1 µg/mL. In the case of `C[C@@H](CF)NCC(Cc1nc[nH]c(=O)c1O)c1ccc(C#Cc2ccc(CN3CC(CC#N)C3)cc2)cc1` (mixture of isomers) [Compound 95], the minimum inhibitory concentration (MIC) is under 1 µg/mL. Turning to `C[C@@H](CF)NCC(Cc1nc[nH]c(=O)c1O)c1ccc(C#Cc2ccc(CN[C@@H]3CCOC3)cc2)cc1` (mixture of isomers) [Compound 108], the MIC is under 1 µg/mL. Still for that read-out and setting: the same measure for `C[C@@H](CF)NCC(Cc1nc[nH]c(=O)c1O)c1ccc(C#Cc2ccc(CN[C@H]3CCOC3)cc2)cc1` (mixture of isomers) [Compound 110]: under 1 µg/mL; for `N#C[C@H]1CCN(Cc2ccc(C#Cc3ccc(C(CNCC(F)F)Cc4nc[nH]c(=O)c4O)cc3)cc2)C1` (mixture of isomers) [Compound 123]: under 1 µg/mL; for `C[C@@H](CF)NCC(Cc1nc[nH]c(=O)c1O)c1ccc(C#Cc2ccc(CN3CC4(COC4)C3)cc2)cc1` (mixture of isomers) [Compound 124]: 1 to 8 µg/mL.

As for `CO[C@@H]1CCN(Cc2ccc(C#Cc3ccc(C(CNCC(C)Cl)Cc4nc[nH]c(=O)c4O)cc3)cc2)C1` (mixture of isomers) [Compound 125], the MIC is 1 to 8 µg/mL. Same read-out and setting: the same measure for `C[C@@H](CF)NCC(Cc1nc[nH]c(=O)c1O)c1ccc(C#Cc2ccc(CN3CC(C4COC4)C3)cc2)cc1` (mixture of isomers) [Compound 126]: 1 to 8 µg/mL. Still for that read-out and setting: the same measure for `C[C@@H](CF)NCC(Cc1nc[nH]c(=O)c1O)c1ccc(C#Cc2ccc(CN3CC4(CCOC4)C3)cc2)cc1` (mixture of isomers) [Compound 127]: 1 to 8 µg/mL. Same read-out and setting: the same measure for `C[C@@H](CF)NCC(Cc1nc[nH]c(=O)c1O)c1ccc(C#Cc2ccc(CN3CC4(CCO4)C3)cc2)cc1` (mixture of isomers) [Compound 132]: under 1 µg/mL. With `CO[C@@H]1CCN(Cc2ccc(C#Cc3ccc(C(CNCC(C)F)Cc4nc[nH]c(=O)c4O)cc3)cc2)C1` (mixture of isomers) [Compound 135], the “E. coli MIC” value is on record as “B (B: >1 μg/mL to ≤8.0 μg/mL)”. For the compound `COC1CN(Cc2ccc(C#Cc3ccc(C(C)(CN[C@@H](C)CF)Cc4nc[nH]c(=O)c4O)cc3)cc2)C1` (mixture of isomers) [Compound 143], the MIC is under 1 µg/mL. `C[C@@H](CO)NCC(Cc1nc[nH]c(=O)c1O)c1ccc(C#Cc2ccc(CN[C@H]3CCOC3)cc2)cc1` (mixture of isomers) [Compound 144]: the MIC is 1 to 8 µg/mL. `NC[C@@H]1CCCN1Cc1ccc(C#Cc2ccc(C(CO)Cc3nc[nH]c(=O)c3O)cc2)cc1` (mixture of isomers) [Compound 145]: the MIC fell in the range of 1 to 8 µg/mL. Still for that read-out and setting: the same measure for `NC[C@H]1CCCN1Cc1ccc(C#Cc2ccc(C(CO)Cc3nc[nH]c(=O)c3O)cc2)cc1` (mixture of isomers) [Compound 148]: 1 to 8 µg/mL; for `N=[S@]1(=O)CC[C@@H](NCc2ccc(C#Cc3ccc(C(CO)Cc4nc[nH]c(=O)c4O)cc3)cc2)C1` (mixture of isomers) [Compound 150]: 1 to 8 µg/mL; for `N=[S@@]1(=O)CC[C@H](NCc2ccc(C#Cc3ccc(C(CO)Cc4nc[nH]c(=O)c4O)cc3)cc2)C1` (mixture of isomers) [Compound 151]: 1 to 8 µg/mL. Still for that read-out and setting: the same measure for `O=C(CO)N(Cc1ccc(C#Cc2ccc(C(CO)Cc3nc[nH]c(=O)c3O)cc2)cc1)[C@@H]1CCNC1` (mixture of isomers) [Compound 154]: 8 to 32 µg/mL; for `O=c1[nH]cnc(CC(CO)c2ccc(C#Cc3ccc(CN[C@@H]4CCN(CCO)C4)cc3)cc2)c1O` (mixture of isomers) [Compound 155]: 1 to 8 µg/mL; for `O=C(O)CN1CC[C@@H](NCc2ccc(C#Cc3ccc(C(CO)Cc4nc[nH]c(=O)c4O)cc3)cc2)C1` (mixture of isomers) [Compound 156]: over 32 µg/mL. For the compound `O=C(CO)NC[C@@H]1CCCN1Cc1ccc(C#Cc2ccc(C(CO)Cc3nc[nH]c(=O)c3O)cc2)cc1` (mixture of isomers) [Compound 158], the MIC lay within 1 to 8 µg/mL. On the same count and under the same terms, the same measure for `O=c1[nH]cnc(CC(CN[C@H]2CCOC2)c2ccc(C#Cc3ccc(CN4CCOCC4)cc3)cc2)c1O` (mixture of isomers) [Compound 166]: under 1 µg/mL.

Turning to `C[C@@H](CO)NCC(Cc1nc[nH]c(=O)c1O)c1ccc(C#Cc2ccc(CN3CCOCC3)cc2)cc1` (mixture of isomers) [Compound 167], the MIC was under 1 µg/mL.

For `NC(Cc1nc[nH]c(=O)c1O)c1ccc(C#Cc2ccc(CN[C@@H]3CCOC3)cc2)cc1` (mixture of isomers) [Compound 173], the MIC was under 1 µg/mL. Same read-out and setting: the same measure for `O=c1[nH]cnc(CC(CO)c2ccc(/C=C/c3ccc(CN[C@H]4CCOC4)cc3)cc2)c1O` (mixture of isomers) [Compound 198]: 8 to 32 µg/mL; for `CC(=O)N1CC[C@@H](NCc2ccc(C#Cc3ccc(C(CO)Cc4nc[nH]c(=O)c4O)cc3)cc2)C1` (mixture of isomers) [Compound 232]: under 1 µg/mL; for `O=C(N[C@@H]1CCN(Cc2ccc(C#Cc3ccc(C(CO)Cc4nc[nH]c(=O)c4O)cc3)cc2)C1)C1CC1` (mixture of isomers) [Compound 256]: under 1 µg/mL. Turning to `O=C(CO)N[C@@H]1CCN(Cc2ccc(C#Cc3ccc(C(CO)Cc4nc[nH]c(=O)c4O)cc3)cc2)C1` (mixture of isomers) [Compound 257], the MIC was 1 to 8 µg/mL. The same measure, in the same setting: the same measure for `CN(Cc1ccc(C#Cc2ccc(C(CO)Cc3nc[nH]c(=O)c3O)cc2)cc1)[C@@H]1CCNC1` (mixture of isomers) [Compound 260]: 1 to 8 µg/mL; for `CN1CC[C@@H](NCc2ccc(C#Cc3ccc(C(CO)Cc4nc[nH]c(=O)c4O)cc3)cc2)C1` (mixture of isomers) [Compound 261]: 1 to 8 µg/mL.

For the compound `NCC(=O)N1CC[C@@H](NCc2ccc(C#Cc3ccc(C(CO)Cc4nc[nH]c(=O)c4O)cc3)cc2)C1` (mixture of isomers) [Compound 262], the minimum inhibitory concentration (MIC) lay in the range of 8 to 32 µg/mL. Same read-out and setting: the same measure for `CNC(Cc1nc[nH]c(=O)c1O)c1ccc(C#Cc2ccc(CN[C@@H]3CCOC3)cc2)cc1` (mixture of isomers) [Compound 265]: under 1 µg/mL; for `O=c1[nH]cnc(CC(O)c2ccc(C#Cc3ccc(CN[C@@H]4CCOC4)cc3)cc2)c1O` (mixture of isomers) [Compound 271]: under 1 µg/mL.

For the compound `N[C@@H]1CCN(Cc2ccc(C#Cc3ccc(C(CO)Cc4nc[nH]c(=O)c4O)cc3)cc2)C1` (mixture of isomers) [Compound 292], the MIC lay within 1 to 8 µg/mL. Still for that read-out and setting: the same measure for `C[C@@H](CF)NCC(Cc1nc[nH]c(=O)c1O)c1ccc(C#Cc2ccc(CCN3CCOCC3)cc2)cc1` (mixture of isomers) [Compound 294]: under 1 µg/mL.

In the case of `O=c1[nH]cnc(CC(CO)c2ccc(C#Cc3ccc(CN[C@H]4CCOC4)cc3)cc2)c1O` (single isomer, unassigned) [Compound 9], the “E. coli MIC” value is given as “B (B: >1 μg/mL to ≤8.0 μg/mL)”. The same measure, in the same setting: the same measure for `O=c1[nH]cnc(CC(CO)c2ccc(C#Cc3ccc(CN[C@H]4CCOC4)cc3)cc2)c1O` (single isomer, unassigned) [Compound 10]: “A (A: ≤1 μg/mL)”. `O=c1[nH]cnc(CC(CO)c2ccc(C#Cc3ccc(CN[C@H]4CCS(=O)(=O)C4)cc3)cc2)c1O` (single isomer, unassigned) [Compound 39]: the MIC was under 1 µg/mL. On the same count and under the same terms, the same measure for `O=c1[nH]cnc(CC(CO)c2ccc(C#Cc3ccc(CN[C@@H]4CCS(=O)(=O)C4)cc3)cc2)c1O` (single isomer, unassigned) [Compound 40]: 1 to 8 µg/mL (≈ 2.03 to 16.2 µM).

With `O=C(CO)N1CC[C@@H](NCc2ccc(C#Cc3ccc(C(CO)Cc4nc[nH]c(=O)c4O)cc3)cc2)C1` (single isomer, unassigned) [Compound 45], the “E. coli MIC” value is recorded as “B (B: >1 μg/mL to ≤8.0 μg/mL)”.

In general, MIC refers to the lowest concentration that inhibits growth of the organism.
